Literature values as cited in patent US20050163856A1, “Abuse-resistant sustained-release opioid formulation” (Roxane Laboratories, Inc., priority 1999, published 2005).
Where a name gives a salt, the structure may show the parent alone.

Details: conventional tablet form

COc1ccc2c3c1O[C@H]1C(=O)CC[C@@]4(O)[C@@H](C2)N(C)CC[C@]314 [Oxycodone, oxycodone (dihydrohydroxycodeinone) hydrochloride]
half-time of absorption: about 0.4 hours
